Measurements: patent US20140155384A1, “COMPOUNDS AND METHODS OF TREATING DIABETES” (Medivation Technologies, Inc., priority 2011, published 2014)

Assays:
[1] = target: T1, rat adrenergic α1B receptor (Rattus norvegicus, UniProt P15823); experiment: Radioligand binding, adrenergic α1B receptor ([3H]Prazosin); details: 0.1 μM compound, Wistar rat liver, read-out: Percentage inhibition of ligand binding, Adrenergic α1B
T1 construct: rat adrenergic α1B receptor obtained from Wistar Rat liver; from tissue; host or cells: Wistar rat liver
T1 sequence (P15823 1-515): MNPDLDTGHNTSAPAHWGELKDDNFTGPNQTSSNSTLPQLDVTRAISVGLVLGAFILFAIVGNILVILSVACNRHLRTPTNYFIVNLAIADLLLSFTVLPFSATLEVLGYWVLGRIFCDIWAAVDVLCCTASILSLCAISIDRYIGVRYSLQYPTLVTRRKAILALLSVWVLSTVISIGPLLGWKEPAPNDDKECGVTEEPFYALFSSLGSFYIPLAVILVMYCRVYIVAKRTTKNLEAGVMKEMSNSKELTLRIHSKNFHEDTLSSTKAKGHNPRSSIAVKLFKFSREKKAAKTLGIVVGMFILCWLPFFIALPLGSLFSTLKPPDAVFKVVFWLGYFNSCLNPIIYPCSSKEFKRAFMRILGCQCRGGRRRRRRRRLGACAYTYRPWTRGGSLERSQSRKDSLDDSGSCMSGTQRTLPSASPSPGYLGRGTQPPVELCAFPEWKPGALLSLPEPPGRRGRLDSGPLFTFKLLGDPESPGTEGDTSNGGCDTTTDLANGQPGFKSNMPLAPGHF
Description: To evaluate in radioligand binding assays the activity of compounds, rat adrenergic α1B receptor obtained from Wistar Rat liver (Garcia-S' ainz, J. et al, Biochem. Biophys. Res. Commun. 186:760, 1992; Michel, A. et al, Br. J. Pharmacol. 98:883, 1989) in a modified Tris-HCl buffer (50 mM Tris-HCl buffer, pH 7.4, 0.5 mM EDTA) was used. Compounds were incubated with 0.25 nM [^3H]Prazosin for 60 min at […]. Non-specific binding was estimated in the presence of 10 μM phentolamine. Receptor proteins were filtered and washed, the filters were then counted to determine [^3H]Prazosin specifically bound. Compounds were screened at 1 μM or lower, using 1% DMSO as vehicle. Compounds were tested in this biochemical assay and percent inhibition of specific binding was determined. Biochemical assay results are presented as the percent inhibition of specific binding in Table 2.

[2] = target: T2, human recombinant adrenergic α2B receptor (Homo sapiens, UniProt P18089); experiment: Radioligand binding, adrenergic α2B receptor ([3H]Rauwolscine); details: 0.1 μM compound, CHO-K1 cells, read-out: Percentage inhibition of ligand binding, Adrenergic α2B
T2 construct: expressed in transfected cells; host or cells: CHO-K1
T2 sequence (P18089 1-450): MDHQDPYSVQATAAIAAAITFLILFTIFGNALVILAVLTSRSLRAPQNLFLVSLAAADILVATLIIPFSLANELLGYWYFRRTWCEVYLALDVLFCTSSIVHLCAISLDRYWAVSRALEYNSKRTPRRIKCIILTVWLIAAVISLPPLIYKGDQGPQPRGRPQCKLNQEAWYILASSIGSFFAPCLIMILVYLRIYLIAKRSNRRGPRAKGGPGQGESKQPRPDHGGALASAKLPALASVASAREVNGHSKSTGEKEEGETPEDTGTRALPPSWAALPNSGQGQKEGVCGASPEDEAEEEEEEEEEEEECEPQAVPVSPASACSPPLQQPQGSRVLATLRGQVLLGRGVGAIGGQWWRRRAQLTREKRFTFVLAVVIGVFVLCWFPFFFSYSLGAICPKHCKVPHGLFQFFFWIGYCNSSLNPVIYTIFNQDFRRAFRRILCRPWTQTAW
Description: To evaluate in radioligand binding assays the activity of compounds, human recombinant adrenergic α2B receptor expressed in Chinese hamster ovary (CHO) K1 cells (Uhlen, S. et al, Eur. J. Pharmacol. 343(1):93, 1998) in a modified Tris-HCl buffer (50 mM Tris-HCl, pH 7.4, 12.5 mM MgCl2, 1 mM EDTA, 0.2% BSA) was used. Compounds were incubated with 2.5 nM [^3H]Rauwolscine for 60 min at 25° C. Non-specific binding was estimated in the presence of 10 μM Prazosin. Receptor proteins were filtered and washed, the filters were then counted to determine [^3H]Rauwolscine specifically bound. Compounds were screened at 1 μM or lower, using 1% DMSO as vehicle. Compounds were tested in this biochemical assay and percent inhibition of specific binding was determined. Biochemical assay results are presented as the percent inhibition of specific binding in Table 2.

[3] = target: T3, human recombinant adrenergic α2A receptor (Homo sapiens, UniProt P08913); experiment: Radioligand binding, adrenergic α2A receptor ([3H]MK-912); details: 0.1 μM compound; Sf9 cells; 1 nM [3H]MK-912; read-out: Percentage inhibition of ligand binding, Adrenergic α2A
T3 construct: expressed in transfected cells; host or cells: insect Sf9 cells
T3 sequence (P08913 1-465): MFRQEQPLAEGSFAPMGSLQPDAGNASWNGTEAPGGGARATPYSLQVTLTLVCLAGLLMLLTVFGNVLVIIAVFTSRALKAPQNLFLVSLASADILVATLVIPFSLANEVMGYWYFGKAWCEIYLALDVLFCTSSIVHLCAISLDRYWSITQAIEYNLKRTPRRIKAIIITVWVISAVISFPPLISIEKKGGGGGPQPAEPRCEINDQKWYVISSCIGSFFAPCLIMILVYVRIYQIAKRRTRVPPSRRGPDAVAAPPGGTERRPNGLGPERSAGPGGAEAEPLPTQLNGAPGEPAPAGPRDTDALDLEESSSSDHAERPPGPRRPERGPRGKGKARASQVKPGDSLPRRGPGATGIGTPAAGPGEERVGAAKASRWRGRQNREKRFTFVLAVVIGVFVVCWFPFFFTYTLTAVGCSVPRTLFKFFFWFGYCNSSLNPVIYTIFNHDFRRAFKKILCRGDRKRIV
Description: To evaluate in radioligand binding assays the activity of compounds, human recombinant adrenergic α2A receptor expressed in insect Sf9 cells (Uhlen, S. et al, J. Pharmacol. Exp. Ther. 271:1558, 1994) in a modified Tris-HCl buffer (50 mM Tris-HCl, pH 7.4, 12.5 mM MgCl2, 2 mM EDTA) was used. Compounds were incubated with 1 nM [^3H]MK-912 for 60 min at 25° C. MK912 is (2S-trans)-1,3,4,5′,6,6′,7,12b-octahydro-1′,3′-dimethyl-spiro[2H-benzofuro[2,3-a]quinolizine-2,4′(1′H)-pyrimidin]-2′(3′H)-one hydrochloride Non-specific binding was estimated in the presence of 10 μM WB-4101 (2-(2,6-Dimethoxyphenoxyethyl)aminoethyl-1,4-benzodioxane hydrochloride). Receptor proteins were filtered and washed, the filters were then counted to determine [^3H]MK-912 specifically bound. Compounds were screened at 1 μM or lower, using 1% DMSO as vehicle. Compounds were tested in this biochemical assay and percent inhibition of specific binding was determined. Biochemical assay results are presented as the percent inhibition of specific binding in Table 2.

[4] = target: T4, human recombinant adrenergic α1D receptor (Homo sapiens, UniProt P25100); experiment: Radioligand binding, adrenergic α1D receptor ([3H]Prazosin); details: 0.1 μM compound; HEK-293 cells; 0.6 nM [3H]Prazosin; read-out: Percentage inhibition of ligand binding, Adrenergic α1D
T4 construct: expressed in transfected cells; host or cells: HEK-293
T4 sequence (P25100 1-572): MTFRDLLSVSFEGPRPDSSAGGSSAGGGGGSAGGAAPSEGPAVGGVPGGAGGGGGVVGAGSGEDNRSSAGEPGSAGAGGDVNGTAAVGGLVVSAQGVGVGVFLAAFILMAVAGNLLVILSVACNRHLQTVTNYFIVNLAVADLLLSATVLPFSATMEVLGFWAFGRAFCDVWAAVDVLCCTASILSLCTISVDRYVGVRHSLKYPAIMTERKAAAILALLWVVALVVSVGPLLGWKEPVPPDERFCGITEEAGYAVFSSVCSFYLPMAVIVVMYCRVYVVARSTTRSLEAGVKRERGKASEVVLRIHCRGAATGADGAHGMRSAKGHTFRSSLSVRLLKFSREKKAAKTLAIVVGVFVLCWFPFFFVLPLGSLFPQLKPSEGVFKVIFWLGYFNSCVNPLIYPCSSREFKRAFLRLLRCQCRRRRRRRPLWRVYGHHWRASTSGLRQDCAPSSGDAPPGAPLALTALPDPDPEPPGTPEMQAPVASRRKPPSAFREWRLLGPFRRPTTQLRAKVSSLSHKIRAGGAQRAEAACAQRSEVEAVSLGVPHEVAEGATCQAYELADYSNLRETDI
Description: Compounds were incubated with 0.6 nM [3H]Prazosin for 60 min at 25° C. Non-specific binding was estimated in the presence of 10 μM phentolamine. Receptor proteins were filtered and washed, the filters were then counted to determine [3H]Prazosin specifically bound. Compounds were screened at 1 μM or lower, using 1% DMSO as vehicle. Biochemical assay results are presented as the percent inhibition of specific binding in Table 2.

SMILES	inhibition at 0.1 µM [1]	inhibition at 0.1 µM [2]	inhibition at 0.1 µM [3]	inhibition at 0.1 µM [4]
Cc1ccc2c(c1)c1c(n2-c2ccccc2-c2cc3ccccc3s2)CCN(C)C1 [Compound No. 103, 5-(2-(benzo[b]thiophen-2-yl)phenyl)-2,8-dimethyl-2,3,4,5-tetrahydro-1H-pyrido[4,3-b]indole]	41%	97%	98%	62%
Cc1ccc2c(c1)c1c(n2-c2ccc(-c3cccc4ccccc34)cn2)CCN(C)C1 [Compound No. 141, 2,8-dimethyl-5-(5-(naphthalen-1-yl)pyridin-2-yl)-2,3,4,5-tetrahydro-1H-pyrido[4,3-b]indole]	62%	82%	69%	50%
Cc1ccc2c(c1)c1c(n2-c2ccc(-c3c(C)noc3C)cn2)CCN(C)C1 [Compound No. 137, 4-(6-(2,8-dimethyl-3,4-dihydro-1H-pyrido[4,3-b]indol-5(2H)-yl)pyridin-3-yl)-3,5-dimethylisoxazole]	72%	92%	57%	74%
Cc1ccc2c(c1)c1c(n2-c2ccccc2-c2sccc2C)CCN(C)C1 [Compound No. 102, 2,8-dimethyl-5-(2-(3-methylthiophen-2-yl)phenyl)-2,3,4,5-tetrahydro-1H-pyrido[4,3-b]indole]	57%	90%	85%	50%
Cc1ccc2c(c1)c1c(n2-c2cscc2-c2ccnn2C)CCN(C)C1 [Compound No. 150]	72%	77%	55%	73%
CNC(=O)c1ccc(-c2cscc2-n2c3c(c4cc(C)ccc42)CN(C)CC3)cc1 [Compound No. 155]	43%	74%	9%	63%
Cc1ccc2c(c1)c1c(n2-c2ccc(-c3ccc(F)nc3)cn2)CCN(C)C1 [Compound No. 142, 5-(6′-fluoro-3,3′-bipyridin-6-yl)-2,8-dimethyl-2,3,4,5-tetrahydro-1H-pyrido[4,3-b]indole]	83%	91%	59%	78%

More lines, now with the values ahead:

inhibition at 0.1 µM [1]	inhibition at 0.1 µM [2]	inhibition at 0.1 µM [3]	inhibition at 0.1 µM [4]	SMILES
4%	14%	62%	9%	Cc1ccc2c(c1)c1c(n2-c2cccc(-c3ccc(C)nc3)c2)CCN(C)C1 [Compound 60, 2,8-dimethyl-5-(3-(6-methylpyridin-3-yl)phenyl)-2,3,4,5-tetrahydro-1H-pyrido[4,3-b]indole]
15%	45%	15%	6%	Cc1ccc2c(c1)c1c(n2-c2ccc3c(c2)CCN(C=O)C3)CCN(C)C1 [Compound No. 77, 6-(2,8-dimethyl-1,2,3,4-tetrahydro-pyrido[4,3-b]indol-5-yl)-3,4-dihydro-1H-isoquinoline-2-carbaldehyde]
13%	79%	90%	26%	Cc1csc(-c2ccccc2-n2c3c(c4cc(C)ccc42)CN(C)CC3)c1 [Compound 36]
68%	95%	72%	52%	Cc1csc(-c2ccc(-n3c4c(c5cc(C)ccc53)CN(C)CC4)nc2)c1 [Compound No. 144, 2,8-dimethyl-5-(5-(4-methylthiophen-2-yl)pyridin-2-yl)-2,3,4,5-tetrahydro-1H-pyrido[4,3-b]indole]
38%	51%	23%	20%	Cc1ccc2c(c1)c1c(n2-c2ccsc2)CCN(C)C1 [Compound 14, 2,8-dimethyl-5-thiophen-3-yl-2,3,4,5-tetrahydro-1H-pyrido[4,3-b]indole]
